# Data: EP2112152A1, “Dihydropteridinones as Plk Inhibitors” (GPC Biotech AG, priority 2008, dated 2009)
# Tests used:
# Type in all cases: cell-based
# Plk1 = Plk1 (Homo sapiens, UniProt P53350); assay: Cellular Plk1 kinase activity: nucleophosmin (B23) Ser4 phosphorylation in HCT116 cells (MSD electrochemiluminescence); set-up: host or cells: HCT116; settings: 100 ng/ml nocodazole, 4 hours after compound addition, read-out: Biochemical IC50 Nucleophosmin assay
# Description: We observed the surprising finding that compounds of the invention were able to penetrate cell membranes and retained their activity as Plk1 inhibitors against native Plk1 expressed within living cancer cells.
# Cellular Plk1 kinase activity was measured by quantification of nucleophosmin (B23) Ser4 phosphorylation in a cancer cell line. Nucleophosmin (B23) Ser4 is phosphorylated by Plk1, and this phosphorylation can be specifically detected by cross-reactivity of a phospho-Mek1/2 antibody that is able to recognizes a mitotic-specific phosphorylated form of nucleophosmin (B23) in a nocodazole dependent way (Zhang, H., Shi, X., Paddon, H., Hampong, M., Dai, W., and Pelech, S. (2004) B23/Nuleophosmin Serin 4 Phosphorylation Mediates Mitotic Functions of Polo-like Kinase 1. J. Biol. Chem., 279(34), 35726-35734).
# Briefly, HCT116 cells (ATCC, Order No. CCL-247) were plated in 96 well dishes 24 hours prior to nocodazole treatment at 25 000 cells per well. Cells were then treated with 100 ng/ml nocodazole (Sigma-Aldrich, # M1404). 20 hours after nocodazole treatment, cells were exposed to the test compounds at various concentrations appropriate to determine an IC50. 4 hours after compound addition, medium was carefully removed and 120 µl of Complete Tris Lysis Buffer (R60TX; MSD, Gaithersburg MD) was added to each well. Samples were then stored at -20°C.
# The level of nucleophosmin (B23) Ser4 phosphorylation in these cell lysis samples was estimated by electrochemiluminescence detection using the Meso Scale Discovery ("MSD") Technology Platform (MSD, Gaithersburg MD). The protocol used was as recommended by the manufacturer with the use of a phospho-Mek1/2 antibody (Cell Signalling, #9121) as primary antibody, and is as follows.
# The cell lysates were thawed at room temperature and 40 µl were incubated on 96-well MULTI-ARRAY High Bind plates (L11XB; MSD) for 1.5 - 2 hours at room temperature. The supernatants were then removed and 150 µl of a 5% (w/v) solution of Blocker A (R93AA; MSD) in Tris Wash Buffer (R61TX; MSD) were added to each well. The plates were then incubated for 1 hour at room temperature before removal of the Blocker A solution and washed 4 times with 200 µl Tris Wash Buffer. 25 µl primary antibody (anti-phospho-MEK1/2, Cell Signalling, #9121, rabbit polyclonal), diluted 1:250 in a 1% (w/v) solution of Blocker A in Tris Wash Buffer, were added to each well. The plates were then incubated for 1 hour at room temperature before removal of the antibody solution and washed 4 times with 200 µl Tris Wash Buffer. Then, 25 µl of labelled secondary antibody (SULFO-TAG Goat Anti-Rabbit IgGAntibody (R32AB; MSD), diluted 1:500 in a 1% (w/v) solution of Blocker A in Tris Wash Buffer) were added to each well. The plates were then incubated for 1 hour at room temperature before removal of the antibody solution and washed 4 times with 200 µl Tris Wash Buffer. Then, […] of 1x Read Buffer T (R92TC; MSD) were carefully added to each well and the plates were quantitatively detected for each well with a SECTOR™ Imager 6000 (MSD).
# Inhibitory activity of the compounds (IC) was calculated as % inhibition of nucleophosmin (B23) Ser4 phosphorylation compared to cells not treated with nocodazole.
# IMR-90 = assay: SRB cell proliferation assay, IMR-90; settings: Homo sapiens, 72 hours, SRB assay, slow cycling cell line, read-out: CELLULAR IC50 IMR-90
# Description: (§1) We observed the surprising finding that compounds of the invention were useful in inhibiting proliferation of tumor cell lines (see Table 3).
# (§2) Cells were exposed to the test compounds at various concentrations appropriate to determine an IC50 for 72 hours. Cell proliferation was measured using the SRB assay according to Shekan et al (J Natl Cancer Inst (1990) 82, 1107-112) in order to estimate the IC50 values shown in Table 3. Briefly, cells were plated in 96 well dishes 24 hours prior to compound addition at the densities specified in Table 5.1. The assay was terminated with the addition of cold TCA to a final concentration of 10% after growth medium has been removed and the plates were incubated over night at 4°C. The plates were then washed 5 times with water and 100µl of a Sulforhodamine B solution (4%) was added to each well. The plates were then incubated for 10 minutes at room temperature before removal of unbound dye by washing with 1% acetic acid. The bound dye was solubilised with 10 mM Trizma base and the absorbance read at OD520.
# (§3) Inhibitory activity of the compounds (IC) was calculated as % inhibition of cell proliferation compared to cells treated with the solvent (DMSO).
# (§4) Table 8.1: 18-Cell Line Panel
# HCT 116 = assay: SRB cell proliferation assay, HCT 116; settings: Homo sapiens, HCT-116, 72 h, 72 hours, SRB assay; read-out: CELLULAR IC50 HCT 116
# Description: as §1, §2, §3, §4
# HT-29 = assay: SRB cell proliferation assay, HT-29; settings: Homo sapiens, HT-29, 72 h, 72 hours, SRB assay; read-out: CELLULAR IC50 HT-29
# Description: as §1, §2, §3, §4
# Sequence of Plk1 (P53350 whole entry, species assumed): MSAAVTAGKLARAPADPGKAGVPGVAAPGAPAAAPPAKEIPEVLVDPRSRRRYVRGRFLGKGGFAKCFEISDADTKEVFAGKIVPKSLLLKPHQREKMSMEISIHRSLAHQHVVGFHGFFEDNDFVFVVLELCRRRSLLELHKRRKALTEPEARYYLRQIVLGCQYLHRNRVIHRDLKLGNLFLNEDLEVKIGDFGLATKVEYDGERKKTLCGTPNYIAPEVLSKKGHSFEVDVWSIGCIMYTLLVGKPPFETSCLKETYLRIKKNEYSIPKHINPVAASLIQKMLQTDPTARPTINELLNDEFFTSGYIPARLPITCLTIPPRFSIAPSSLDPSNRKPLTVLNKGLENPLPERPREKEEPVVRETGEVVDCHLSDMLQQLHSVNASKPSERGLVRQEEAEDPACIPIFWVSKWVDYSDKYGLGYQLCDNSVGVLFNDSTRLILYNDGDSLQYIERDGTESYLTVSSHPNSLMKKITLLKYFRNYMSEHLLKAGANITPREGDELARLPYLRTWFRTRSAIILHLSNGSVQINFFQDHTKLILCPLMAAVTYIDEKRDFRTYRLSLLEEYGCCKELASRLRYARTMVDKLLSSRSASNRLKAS
Compound,IC50 (Plk1),IC50 (IMR-90),IC50 (HCT 116),IC50 (HT-29)
"4-(8-Dimethylamino-7-ethyl-5-methyl-6-oxo-5,6,7,8-tetrahydro-pteridin-2-ylamino)-3-methoxy-N-(2-piperidin-1-yl-ethyl)-benzamide [Compound 6]",< 0.1 µM,–,–,–
"4-(8-Dimethylamino-7-ethyl-5-methyl-6-oxo-5,6,7,8-tetrahydro-pteridin-2-ylamino)-3-methoxy-N-(4-piperidin-1-ylmethyl-phenyl)-benzamide [Compound 10]",< 0.1 µM,–,–,–
"4-(8-Dimethylamino-7-ethyl-5-methyl-6-oxo-5,6,7,8-tetrahydro-pteridin-2-ylamino)-3-methoxy-N-[4-(4-methyl-piperazin-1-yl)-phenyl]-benzamide [Compound 8]",< 0.1 µM,–,–,–
"4-(8-Dimethylamino-7-ethyl-5-methyl-6-oxo-5,6,7,8-tetrahydro-pteridin-2-ylamino)-N-[4-(4-ethyl-piperazin-1-yl)-phenyl]-3-methoxy-benzamide [Compound 9]",< 0.1 µM,–,–,–
"4-[8-(Cyclobutylmethyl-methyl-amino)-7-ethyl-5-methyl-6-oxo-5,6,7,8-tetrahydro-pteridin-2-ylamino]-N-[trans-4-(4-cyclopropylmethyl-piperazin-1-yl)-cyclohexyl]-3-methoxy-benzamide [Compound 35]",< 0.5 µM,–,–,–
"4-[8-(Cyclopentylmethyl-methyl-amino)-7-ethyl-5-methyl-6-oxo-5,6,7,8-tetrahydro-pteridin-2-ylamino]-N-(1-ethylpiperidin-4-ylmethyl)-3-methoxy-benzamide [Compound 29]",< 0.1 µM,–,–,–
"CCC1C(=O)N(C)c2cnc(Nc3ccc(C(=O)N[C@H]4CC[C@H](N5CCN(CC6CC6)CC5)CC4)cc3OC)nc2N1N(C)Cc1ccccc1 (relative stereo) [Compound 16, 4-[8-(Benzyl-methyl-amino)-7-ethyl-5-methyl-6-oxo-5,6,7,8-tetrahydro-pteridin-2-ylamino]-N-[trans-4-(4-cyclopropylmethyl-piperazin-1-yl)-cyclohexyl]-3-methoxy-benzamide]",< 0.1 µM,> 1 µM,< 1 µM,< 1 µM
"CCC1C(=O)N(C)c2cnc(Nc3ccc(C(=O)N[C@H]4CC[C@H](N5CCN(CC6CC6)CC5)CC4)cc3OC)nc2N1N(C)CC1CC1 (relative stereo) [Compound 18, 4-[8-(Cyclopropylmethyl-methyl-amino)-7-ethyl-5-methyl-6-oxo-5,6,7,8-tetrahydro-pteridin-2-ylamino]-N-[trans-4-(4-cyclopropylmethyl-piperazin-1-yl)-cyclohexyl]-3-methoxy-benzamide]",< 0.5 µM,> 1 µM,< 1 µM,< 1 µM
"CCCN(C)N1c2nc(Nc3ccc(C(=O)N[C@H]4CC[C@H](N5CCN(CC6CC6)CC5)CC4)cc3OC)ncc2N(C)C(=O)C1CC (relative stereo) [Compound 19, N-[trans-4-(4-Cyclopropylmethyl-piperazin-1-yl)-cyclohexyl]-4-[7-ethyl-5-methyl-8-(methyl-propyl-amino)-6-oxo-5,6,7,8-tetrahydro-pteridin-2-ylamino]-3-methoxy-benzamide]",< 0.1 µM,> 1 µM,< 1 µM,< 1 µM
"CCC1C(=O)N(C)c2cnc(Nc3ccc(C(=O)N[C@H]4CC[C@H](N5CCN(CC6CC6)CC5)CC4)cc3OC)nc2N1N(C)CC(C)C (relative stereo) [Compound 24, N-[trans-4-(4-Cyclopropylmethyl-piperazin-1-yl)-cyclohexyl]-4-[7-ethyl-8-(isobutyl-methyl-amino)-5-methyl-6-oxo-5,6,7,8-tetrahydro-pteridin-2-ylamino]-3-methoxy-benzamide]",< 0.1 µM,> 1 µM,< 1 µM,< 1 µM
"CCC1C(=O)N(C)c2cnc(Nc3ccc(C(=O)N[C@H]4CC[C@H](N5CCN(CC6CC6)CC5)CC4)cc3OC)nc2N1N(C)CC (relative stereo) [Compound 26, N-[trans-4-(4-Cyclopropylmethyl-piperazin-1-yl)-cyclohexyl]-4-[7-ethyl-8-(ethyl-methyl-amino)-5-methyl-6-oxo-5,6,7,8-tetrahydro-pteridin-2-ylamino]-3-methoxy-benzamide]",< 0.1 µM,> 1 µM,< 1 µM,< 1 µM
"CCC1C(=O)N(C)c2cnc(Nc3ccc(C(=O)N[C@H]4CC[C@H](N5CCN(CC6CC6)CC5)CC4)cc3OC)nc2N1N(C)CC1CCCC1 (relative stereo) [Compound 28, 4-[8-(Cyclopentylmethyl-methyl-amino)-7-ethyl-5-methyl-6-oxo-5,6,7,8-tetrahydro-pteridin-2-ylamino]-N-[trans-4-(4-cyclopropylmethyl-piperazin-1-yl)-cyclohexyl]-3-methoxy-benzamide]",< 0.1 µM,> 1 µM,< 1 µM,< 1 µM
"CCC1C(=O)N(C)c2cnc(Nc3ccc(C(=O)N[C@H]4CC[C@H](N5CCN(CC6CC6)CC5)CC4)cc3OC)nc2N1NC (relative stereo) [Compound 31, N-[trans-4-(4-Cyclopropylmethyl-piperazin-1-yl)-cyclohexyl]-4-(7-ethyl-5-methyl-8-methylamino-6-oxo-5,6,7,8-tetrahydro-pteridin-2-ylamino)-3-methoxy-benzamide]",< 0.1 µM,> 1 µM,< 1 µM,< 1 µM
"CCC1C(=O)N(C)c2cnc(Nc3ccc(C(=O)NC4CCN(C)CC4)cc3OC)nc2N1N(C)C (single isomer, unassigned) [Compound 36, 4-(8-dimethylamino-7-ethyl-5-methyl-6-oxo-5,6,7,8-tetrahydro-pteridin-2-ylamino)-3-methoxy-N-(1-methyl-piperidin-4-yl)-benzamide]",> 1 µM,> 1 µM,> 1 µM,> 1 µM
"CCC1C(=O)N(C)c2cnc(Nc3ccc(C(=O)NC4CCN(C)CC4)cc3OC)nc2N1N(C)C (single isomer, unassigned) [Compound 37, 4-(8-dimethylamino-7-ethyl-5-methyl-6-oxo-5,6,7,8-tetrahydro-pteridin-2-ylamino)-3-methoxy-N-(1-methyl-piperidin-4-yl)-benzamide]",< 0.1 µM,–,–,–
"N-(2-Diethylamino-ethyl)-4-(8-dimethylamino-7-ethyl-5-methyl-6-oxo-5,6,7,8-tetrahydro-pteridin-2-ylamino)-3-methoxy-benzamide [Compound 5]",< 0.1 µM,–,–,–
"N-(2-Diisopropylamino-ethyl)-4-(8-dimethylamino-7-ethyl-5-methyl-6-oxo-5,6,7,8-tetrahydro-pteridin-2-ylamino)-3-methoxy-benzamide [Compound 7]",< 0.1 µM,–,–,–
